# Data from PMC4981864, “Novel pH-Sensitive Cyclic Peptides” (Scientific Reports, 2016).
# How the values were obtained:
# [1] = Lipid titration, peptide-membrane partition model, Gibbs free energy; format: physicochemical; settings: 5 μM peptide, varying 50 nm POPC liposomes
# Protocol: Samples containing 5 μM of peptides at pH 8 and pH 3, and varying concentrations of lipids of the 50 nm POPC liposomes were prepared. The fluorescence spectra of peptides in all samples were measured at 280 nm excitation at 25 °C. A series of POPC blanks with the same concentrations of lipids were measured with the same instrument settings and were subtracted from the corresponding fluorescence spectra of peptides in the presence of POPC. The areas under the emission spectra were calculated and the values were normalized to the first point (the emission of the peptide in the absence of POPC). The titration data were fitted by the peptide-membrane partition model to calculate the mole-fraction partition coefficient, K
# where F0 is the fluorescence intensity at zero concentration of lipids (in our case F0 = 1); ΔF if the fluorescence increase in the result of the titration with lipids; Clipids is the concentration of lipids; W is the molar concentration of water (55.3 M). Nonlinear least squares curve fitting procedure using Levenberg-Marquardt algorithm was implemented in Origin 8.5.0 SR1. The Gibbs free energy (ΔG) was calculated according to the equation: […]
# where R is the gas constant and T is the temperature in Kelvin.
# [2] = Dual quenching assay (acrylamide / 10-DN); format: physicochemical; settings: 7 μM peptide, 2.1 mM POPC
# From the text: To establish localization of the peptides within a lipid bilayer of membrane, dual quenching assay[28] was employed (Fig. 3 and Table S3). Effective quenching of fluorescence by acrylamide would occur only for tryptophan residues exposed to polar parts of the outer or inner leaflets of the bilayer. At the same time, tryptophan residues located in the middle of a membrane would be effectively quenched by 10-DN. The result of the dual quenching assay allows establishing if tryptophan residues were located in the middle of a membrane or close to the polar headgroups of the bilayer. […] Therefore, we also performed Förster resonance energy transfer (FRET) assay[29] (Fig. 4). First, symmetrically-labelled by NBD dye, POPC liposomes were prepared. Then, membrane-impermeable dithionite was used to chemically modify exposed NBD, which led to the quenching of NBD fluorescence. Thus, NBD dyes located at the outer leaflet of the bilayer were deactivated and excess of dithionite was removed by gel filtration. As a result, asymmetrically-labelled liposomes with active NBD at the inner leaflet were obtained. FRET was monitored from tryptophan residues of the peptides to NBD. Energy transfer might occur only when both fluorophores are in proximity to each other (within 5–15 Å). Thus, when tryptophan residues located at the outer leaflet of the bilayer no significant energy transfer to NBD at the inner leaflet would occur (the distance is about 50–60 Å). […] All other peptides were located at the outer leaflet of the bilayer at pH 8. Drop of pH promoted partitioning of all cyclic peptides into bilayer, which highest FRET for the c[E4W5C] at pH 3.
# POPC liposomes without and with 10% of the lipids replaced by 10-doxylnonadecane (10-DN) (Avanti Polar Lipids) were prepared in 10 mM citrate-phosphate buffer pH 8.0. Peptides and POPC liposomes were mixed to generate final concentrations of 7 μM peptide and 2.1 mM POPC without and with 10-DN. […] Quencher, acrylamide (Sigma-Aldrich), was added to the samples of POPC liposomes containing no 10-DN, to have final concentration of 235 mM acrylamide. Concentration of peptides in all samples was kept constant. To observe quenching of tryptophan fluorescence by 10-DN or acrylamide, the tryptophan fluorescence was recorded as described above. The appropriate POPC blanks were measured and subtracted from the measured spectra before analysis. The percentage of quenching was calculated.
# [3] = Calculated weak-acid distribution Ci/Ce between inner and outer leaflets; settings: pKa 5.7
# From the text: Thus, cyclic peptides could be considered as a weak acid with multiple protonatable groups, which can diffuse across the bilayer. For weak acids, the intracellular-extracellular distribution, Ci/Ce, should be calculated according to the following equation: […]
# where pHi and pHe are the intracellular and extracellular pH values, respectively. Since the cyclic peptides have affinity to the membrane, we consider Ci and Ce as the concentrations of the peptide on inner and outer leaflets, respectively. […] However, the same ratio increases to 4.5, 7.8, and 10.9 if extracellular pHe would be 6.5, 6.2 and 6.0, respectively. We assume that the symmetrical WE peptides have the same mechanism of action as an asymmetric peptide, however they have less favorable localization of Trp and Glu residues, which reduces their ability to accumulate at the inner leaflet of bilayer of cellular membranes and target acidic tumors. Leu-containing peptides are less advantageous due to their reduced affinity to the headgroup part of the bilayer and high affinity to the center of the membrane.
# [4] = Steady-state tryptophan fluorescence and CD with and without POPC liposomes; format: physicochemical
# Protocol: Large unilamellar vesicles (LUVs) were prepared by extrusion. POPC, 1-palmitoyl-2-oleoyl-sn-glycero-3-phosphocholine (Avanti Polar Lipids), or a mixture of POPC with 0.5% of 18:1 NBD-PE, 1,2-dioleoyl-sn-glycero-3-phosphoethanolamine-N-7-nitro-2-1,3-benzoxadiazol-4-yl ammonium salt (Avanti Polar Lipids) were dissolved in chloroform, desolvated on a rotary evaporator, and dried under high vacuum for several hours. The phospholipid film was then rehydrated in 10 mM phosphate buffer pH 8.0, vortexed until the lipid bilayer was completely dissolved, and repeatedly (15–21 times) extruded through the membranes with 50 nm pore sizes to obtain LUVs.
# Freshly prepared peptides and POPC vesicles were mixed to have 5 μM of a peptide and 1.25 mM of lipids in the final solution. Steady-state fluorescence measurements were carried out on a PC1 spectrofluorometer (ISS, Inc.) under temperature control at 25 °C. Tryptophan fluorescence was excited at 280 nm (there is no Phe or Tyr in the peptides) and recorded with the excitation and emission slits set at 1 nm. The polarizers in the excitation and emission paths were set at the “magic” angle (54.7° from the vertical orientation) and vertically (0°), respectively. Steady state CD measurements were carried out in MOS 450 spectropolarimeter (Bio-Logic, Inc.) with the same concentrations of peptide and lipids used in fluorescence measurements.
compound,measurement,setting,value
O=C(O)CC[C@@H]1NC(=O)[C@H](CS)NC(=O)[C@H](Cc2c[nH]c3ccccc23)NC(=O)[C@H](Cc2c[nH]c3ccccc23)NC(=O)[C@H](Cc2c[nH]c3ccccc23)NC(=O)[C@H](Cc2c[nH]c3ccccc23)NC(=O)[C@H](Cc2c[nH]c3ccccc23)NC(=O)[C@H](CCC(=O)O)NC(=O)[C@H](CCC(=O)O)NC(=O)[C@H](CCC(=O)O)NC1=O [c[E4W5C]],additional free energy released at low pH,"[1]; pH 3 versus pH 8, 25 °C",about 0.7 kcal/mol
same,free energy released on partitioning into the lipid bilayer at pH 8,"[1]; pH 8, 25 °C, partition model",About 7.3 kcal/mol
same,"percentage of fluorescence quenching, Pep-PC+AC pH3","[2]; 235 mM acrylamide, pH 3",54%
same,"percentage of fluorescence quenching, Pep-PC+AC pH8","[2]; 235 mM acrylamide, pH 8",61%
same,"percentage of fluorescence quenching, Pep-PC+10-DN pH3","[2]; 10% of lipids replaced by 10-DN, pH 3",52%
same,"percentage of fluorescence quenching, Pep-PC+10-DN pH8","[2]; 10% of lipids replaced by 10-DN, pH 8",49%
same,"concentration ratio at the inner and outer leaflets, Ci/Ce","[3]; pHe 6.0, pHi = 7.2",10.9
same,"concentration ratio at the inner and outer leaflets, Ci/Ce","[3]; pHe 6.2, pHi = 7.2",7.8
same,"concentration ratio at the inner and outer leaflets, Ci/Ce","[3]; pHe 6.5, pHi = 7.2",4.5
same,"concentration ratio at the inner and outer leaflets, Ci/Ce","[3]; pHe = 7.4, pHi = 7.2",0.6
same,"maximum position of the fluorescence spectrum λmax, Pep, pH8","[4]; peptide in phosphate buffer pH 8, no liposomes, 5 μM peptide, excitation 280 nm, 25 °C",350.6±0.2 nm
same,"maximum position of the fluorescence spectrum λmax, Pep-PC, pH3","[4]; with POPC liposomes pH 3, 5 μM peptide, 1.25 mM lipids, excitation 280 nm, 25 °C",340.2±0.4 nm
same,"S, normalized area under the spectra, Pep-PC, pH3","[4]; with POPC liposomes pH 3, normalized on area for peptide at pH 8 in absence of POPC",2.4±0.5
same,"maximum position of the fluorescence spectrum λmax, Pep-PC, pH8","[4]; with POPC liposomes pH 8, 5 μM peptide, 1.25 mM lipids, excitation 280 nm, 25 °C",342.8±0.4 nm
same,"S, normalized area under the spectra, Pep-PC, pH8","[4]; with POPC liposomes pH 8, normalized on area for peptide at pH 8 in absence of POPC",2.4±0.3
